# Values quoted from earlier work, collected in patent publication US20190105268A1, “Viscoelastic Gel of Liraglutide Adapted for Once-Weekly or Once Bi-Weekly Administration” (Sun Pharma Advanced Research Company Limited, priority 2016, published 2019).
substance,measurement,setting,value
liraglutide,solubility in DMSO,DMSO,slightly soluble
same,solubility in ethanol,ethanol,1100 µg/mL
same,solubility in methanol,methanol,up to 68 mg/ml
same,solubility in water,water,insoluble to slightly soluble
